Assays:
[1] = tested on: CC mismatched DNA (melting temperature experiment) (DNA, mismatch bulge abasic) ATCGTCTCGGTATAA/TTATACCCAGACGAT; assay: UV melting at 260 nm; conditions: compound equimolar to DNA
[2] = tested on: matched DNA (melting temperature experiment) (DNA, duplex) ATCGTCTCGGTATAA/TTATACCGAGACGAT; assay: UV melting at 260 nm; conditions: compound equimolar to DNA

Structure (SMILES): C1CCC(P(CP(C2CCCCC2)C2CCCCC2)C2CCCCC2)CC1.[Pt+2].[Pt+2].[c-]1ccccc1-c1cccc(-c2ccccn2)n1.[c-]1ccccc1-c1cccc(-c2ccccn2)n1
- ΔTm [1]: 6.8 °C
- ΔTm [2]: 0.5 °C
